From article PMC5543128 (Scientific Reports, 2017)
Entries after “also recorded” stand apart in the source; their conditions may differ. Where a SMILES comes first, the peptide text is derived from it. Bridges are numbered along the chain shown (N, C = ends). [ ]: non-standard residue; d: D form. Hyp = O=C(O)[C@@H]1C[C@@H](O)CN1

Assays:
[1] = target: Torpedo muscle-type nicotinic acetylcholine receptors (nAChRs) (Tetronarce californica, UniProt P02710+P02714+P02718); type: binding
[2] = system: hemidiaphragm muscle; design: species or system mouse
[3] = system: isolated mouse phrenic-hemidiaphragm nerve-muscle preparations; conditions: for IC50: pH 7.4
[4] = system: mice; conditions: mouse, in vivo, ip
[5] = system: mice; conditions: mouse, in vivo

Chain of Torpedo muscle-type nicotinic acetylcholine receptors (nAChRs) (P02710 whole entry, looked up): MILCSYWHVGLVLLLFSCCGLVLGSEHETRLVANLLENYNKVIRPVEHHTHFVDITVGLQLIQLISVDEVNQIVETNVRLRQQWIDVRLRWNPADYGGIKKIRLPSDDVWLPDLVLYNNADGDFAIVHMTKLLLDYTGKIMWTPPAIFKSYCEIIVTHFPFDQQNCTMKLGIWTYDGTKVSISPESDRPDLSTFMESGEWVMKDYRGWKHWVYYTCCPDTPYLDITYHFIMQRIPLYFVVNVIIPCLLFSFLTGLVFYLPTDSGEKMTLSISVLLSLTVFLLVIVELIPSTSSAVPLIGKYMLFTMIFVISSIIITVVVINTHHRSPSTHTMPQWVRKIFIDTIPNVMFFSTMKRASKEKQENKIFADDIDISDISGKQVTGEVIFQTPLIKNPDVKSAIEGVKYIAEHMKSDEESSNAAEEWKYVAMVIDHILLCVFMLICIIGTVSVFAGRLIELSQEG
Chain of Torpedo muscle-type nicotinic acetylcholine receptors (nAChRs) (P02714 whole entry, looked up): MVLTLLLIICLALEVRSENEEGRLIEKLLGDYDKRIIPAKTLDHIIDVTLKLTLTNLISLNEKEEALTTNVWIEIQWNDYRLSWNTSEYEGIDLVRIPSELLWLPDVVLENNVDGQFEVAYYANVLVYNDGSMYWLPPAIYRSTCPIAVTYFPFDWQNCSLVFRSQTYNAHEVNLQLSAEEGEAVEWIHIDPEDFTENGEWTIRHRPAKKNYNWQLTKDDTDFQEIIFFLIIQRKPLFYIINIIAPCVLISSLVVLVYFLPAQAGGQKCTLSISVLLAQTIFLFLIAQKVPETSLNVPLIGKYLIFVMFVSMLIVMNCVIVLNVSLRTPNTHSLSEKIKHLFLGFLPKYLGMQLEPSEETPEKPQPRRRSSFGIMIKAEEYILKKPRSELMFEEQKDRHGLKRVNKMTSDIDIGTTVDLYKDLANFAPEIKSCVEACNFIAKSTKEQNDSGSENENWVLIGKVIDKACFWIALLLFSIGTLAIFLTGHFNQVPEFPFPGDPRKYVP
Chain of Torpedo muscle-type nicotinic acetylcholine receptors (nAChRs) (P02718 whole entry, looked up): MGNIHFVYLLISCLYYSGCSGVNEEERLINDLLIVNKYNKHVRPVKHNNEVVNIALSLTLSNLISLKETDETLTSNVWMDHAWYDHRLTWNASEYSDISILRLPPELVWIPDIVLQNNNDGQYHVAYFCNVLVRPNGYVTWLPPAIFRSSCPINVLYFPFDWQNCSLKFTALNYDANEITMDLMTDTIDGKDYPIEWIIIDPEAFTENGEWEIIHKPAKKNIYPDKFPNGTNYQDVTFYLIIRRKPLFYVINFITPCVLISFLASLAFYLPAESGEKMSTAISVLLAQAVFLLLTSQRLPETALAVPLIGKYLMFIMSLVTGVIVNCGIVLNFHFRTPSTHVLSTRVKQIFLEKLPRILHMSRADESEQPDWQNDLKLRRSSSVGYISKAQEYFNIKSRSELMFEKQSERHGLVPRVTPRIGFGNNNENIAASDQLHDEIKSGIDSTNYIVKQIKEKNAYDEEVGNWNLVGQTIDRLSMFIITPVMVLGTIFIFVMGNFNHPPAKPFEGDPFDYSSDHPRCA

SMILES	inhibition of [^125I]-α-bungarotoxin binding [1]	effect on contractility force under direct electrical stimulation [2]	inhibition of muscle contraction [3]	time to full block of muscle contraction [3]	IC50 [3]	D/T (dead/treated mice) [4]	mice lethality [5]	time to death [5]	IC50 (mice death) ([5]; ip)	maximal block of contraction [3]	potency relative to αC-conotoxin PrXA [3]
CC[C@H](C)[C@H](NC(=O)CNC(=O)[C@H](Cc1ccc(O)cc1)NC(=O)[C@@H](N)[C@@H](C)O)C(=O)N[C@@H](Cc1ccc(O)cc1)C(=O)N[C@@H](CC(=O)O)C(=O)N[C@@H](C)C(=O)N[C@@H](CCCCN)C(=O)N1CCC[C@H]1C(=O)N1C[C@H](O)C[C@H]1C(=O)N[C@@H](Cc1ccccc1)C(=O)N[C@@H](CO)C(=O)N[C@H]1CSSC[C@@H](C(=O)N[C@H](C(=O)N[C@@H](CC(C)C)C(=O)N2CCC[C@H]2C(=O)N2C[C@H](O)C[C@H]2C(=O)N[C@@H](CC(N)=O)C(=O)N[C@@H](CC(C)C)C(=O)N[C@@H](CCCNC(=N)N)C(=O)N2C[C@H](O)C[C@H]2C(=O)N[C@@H](CCCCN)C(=O)N[C@@H](Cc2ccccc2)C(=O)N[C@@H](CCCCN)C(=O)N[C@@H](CCC(=O)O)C(N)=O)C(C)C)NC(=O)CNC(=O)CNC(=O)[C@H](CCCNC(=N)N)NC(=O)[C@H](CC(C)C)NC(=O)CNC(=O)[C@H](C)NC1=O [αC-conotoxin PrXA] (H-TYGIYDAKP[Hyp]FSCAGLRGGCVLP[Hyp]NLR[Hyp]KFKE-NH2; disulfide 13-20)	fully inhibited	did not alter muscle contractility force; also recorded: Lack of toxin effect on direct muscle stimulation	concentration- and time-dependent inhibition of muscle contraction	15 min	23 ± 2 nM	3/3					
CC[C@H](C)[C@H](NC(=O)[C@H](Cc1ccc(O)cc1)NC(=O)[C@H](Cc1cnc[nH]1)NC(=O)[C@@H]1CSSC[C@H](NC(=O)[C@@H]2CCCN2C(=O)[C@H](CCCNC(=N)N)NC(=O)[C@H](CC(C)C)NC(=O)[C@H](CC(=O)O)NC(=O)[C@@H]2CCCN2C(=O)[C@H](CCCCN)NC(=O)CNC(=O)CN)C(=O)N[C@@H](Cc2cnc[nH]2)C(=O)N2CCC[C@H]2C(=O)N2CCC[C@H]2C(=O)N1)C(=O)N1CCC[C@H]1C(=O)N[C@@H](CCCNC(=N)N)C(=O)N1CCC[C@H]1C(=O)N[C@@H](CCCCN)C(=O)N1CCC[C@H]1C(=O)N[C@@H](CCCNC(=N)N)C(=O)O [Waglerin 1] (H-GGKPDLRPCHPPCHYIPRPKPR-OH; disulfide 9-13)							100%	≤ 4.7 ± 0.7 min	0.7 µg/g		
CC[C@H](C)[C@H](NC(=O)[C@H](Cc1ccc(O)cc1)NC(=O)[C@H](Cc1c[nH]cn1)NC(=O)[C@@H]1CSSC[C@H](NC(=O)[C@@H]2CCCN2C(=O)[C@H](CCCNC(=N)N)NC(=O)[C@H](CC(C)C)NC(=O)[C@H](CC(=O)O)NC(=O)[C@@H]2CCCN2C(=O)[C@H](CCCCN)NC(=O)CNC(=O)CN)C(=O)N[C@@H](Cc2c[nH]cn2)C(=O)N2CCC[C@H]2C(=O)N2CCC[C@H]2C(=O)N1)C(=O)N1CCC[C@H]1C(=O)N[C@@H](CCCNC(=N)N)C(=O)N1CCC[C@H]1C(=O)N[C@@H](CCCCN)C(=O)N1CCC[C@H]1C(=O)N[C@@H](CCCNC(=N)N)C(=O)O [Waglerin 1] (H-GGKPDLRPCHPPCHYIPRPKPR-OH; disulfide 9-13)					58 ± 2 nM					full block of contraction	twofold less potent
